From PubChem BioAssay (NCI)
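Five concentrations, 48 hours, 96-well plates. The concentration for full growth arrest is given as TGI.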

Legend:
Experiment in all cases: NCI anticancer screen, dose series, 48 h
786-0 renal = tested on: 786-0 renal
A498 renal = tested on: A498 renal
A549 NSCLC = tested on: A549 NSCLC
ACHN renal = tested on: ACHN renal
BT-549 breast = tested on: BT-549 breast
CAKI-1 renal = tested on: CAKI-1 renal
CCRF-CEM leukemia = tested on: CCRF-CEM leukemia
COLO 205 colon = tested on: COLO 205 colon
DU-145 prostate = tested on: DU-145 prostate
EKVX NSCLC = tested on: EKVX NSCLC
HCT-116 colon = tested on: HCT-116 colon
HCT-15 colon = tested on: HCT-15 colon
HL-60(TB) leukemia = tested on: HL-60(TB) leukemia
HOP-62 NSCLC = tested on: HOP-62 NSCLC
HOP-92 NSCLC = tested on: HOP-92 NSCLC
HS 578T breast = tested on: HS 578T breast
HT29 colon = tested on: HT29 colon
IGROV1 ovarian = tested on: IGROV1 ovarian
K-562 leukemia = tested on: K-562 leukemia
KM12 colon = tested on: KM12 colon
LOX IMVI melanoma = tested on: LOX IMVI melanoma
M14 melanoma = tested on: M14 melanoma
MCF7 breast = tested on: MCF7 breast
MDA-MB-231 breast = tested on: MDA-MB-231 breast
MDA-MB-435 = tested on: MDA-MB-435
MDA-N = tested on: MDA-N
MOLT-4 leukemia = tested on: MOLT-4 leukemia
NCI-H23 lung = tested on: NCI-H23 lung
NCI-H460 lung = tested on: NCI-H460 lung
NCI-H522 lung = tested on: NCI-H522 lung
NCI/ADR-RES ovarian = tested on: NCI/ADR-RES ovarian
OVCAR-3 ovarian = tested on: OVCAR-3 ovarian
OVCAR-4 ovarian = tested on: OVCAR-4 ovarian
OVCAR-5 ovarian = tested on: OVCAR-5 ovarian
OVCAR-8 ovarian = tested on: OVCAR-8 ovarian
PC-3 prostate = tested on: PC-3 prostate
RPMI-8226 leukemia = tested on: RPMI-8226 leukemia
SF-268 CNS = tested on: SF-268 CNS
SF-295 CNS = tested on: SF-295 CNS
SF-539 CNS = tested on: SF-539 CNS
SK-MEL-2 melanoma = tested on: SK-MEL-2 melanoma
SK-MEL-5 melanoma = tested on: SK-MEL-5 melanoma
SK-OV-3 ovarian = tested on: SK-OV-3 ovarian
SN12C renal = tested on: SN12C renal
SNB-19 CNS = tested on: SNB-19 CNS
SNB-75 CNS = tested on: SNB-75 CNS
SR leukemia = tested on: SR leukemia
SW-620 colon = tested on: SW-620 colon
T-47D breast = tested on: T-47D breast
TK-10 renal = tested on: TK-10 renal
U251 CNS = tested on: U251 CNS
UACC-257 melanoma = tested on: UACC-257 melanoma
UACC-62 melanoma = tested on: UACC-62 melanoma
UO-31 renal = tested on: UO-31 renal
HCC-2998 colon = tested on: HCC-2998 colon
MALME-3M melanoma = tested on: MALME-3M melanoma
NCI-H226 lung = tested on: NCI-H226 lung
RXF 393 renal = tested on: RXF 393 renal
SK-MEL-28 melanoma = tested on: SK-MEL-28 melanoma

O=C(O)CSC(CC(=O)c1ccc(Cl)cc1)c1ccc(Cl)cc1 (stereo not drawn)
TGI (786-0 renal): > 100 µM
TGI (A498 renal): > 100 µM
TGI (A549 NSCLC): > 100 µM
TGI (ACHN renal): > 100 µM
TGI (BT-549 breast): 80.7 µM
TGI (CAKI-1 renal): > 100 µM
TGI (CCRF-CEM leukemia): 36.3 µM
TGI (COLO 205 colon): > 100 µM
TGI (DU-145 prostate): > 100 µM
TGI (EKVX NSCLC): > 100 µM
TGI (HCT-116 colon): 59.7 µM
TGI (HCT-15 colon): > 100 µM
TGI (HL-60(TB) leukemia): 7.45 µM
TGI (HOP-62 NSCLC): 97.1 µM
TGI (HOP-92 NSCLC): 73.2 µM
TGI (HS 578T breast): > 100 µM
TGI (HT29 colon): > 100 µM
TGI (IGROV1 ovarian): 54.5 µM
TGI (K-562 leukemia): > 100 µM
TGI (KM12 colon): 27.6 µM
TGI (LOX IMVI melanoma): 40.1 µM
TGI (M14 melanoma): > 100 µM
TGI (MCF7 breast): > 100 µM
TGI (MDA-MB-231 breast): > 100 µM
TGI (MDA-MB-435): > 100 µM
TGI (MDA-N): > 100 µM
TGI (MOLT-4 leukemia): 27 µM
TGI (NCI-H23 lung): > 100 µM
TGI (NCI-H460 lung): > 100 µM
TGI (NCI-H522 lung): 45.3 µM
TGI (NCI/ADR-RES ovarian): > 100 µM
TGI (OVCAR-3 ovarian): 50 µM
TGI (OVCAR-4 ovarian): > 100 µM
TGI (OVCAR-5 ovarian): > 100 µM
TGI (OVCAR-8 ovarian): 57 µM
TGI (PC-3 prostate): > 100 µM
TGI (RPMI-8226 leukemia): 61.2 µM
TGI (SF-268 CNS): 79 µM
TGI (SF-295 CNS): > 100 µM
TGI (SF-539 CNS): > 100 µM
TGI (SK-MEL-2 melanoma): > 100 µM
TGI (SK-MEL-5 melanoma): > 100 µM
TGI (SK-OV-3 ovarian): 97.9 µM
TGI (SN12C renal): > 100 µM
TGI (SNB-19 CNS): > 100 µM
TGI (SNB-75 CNS): > 100 µM
TGI (SR leukemia): 7.37 µM
TGI (SW-620 colon): > 100 µM
TGI (T-47D breast): 98.4 µM
TGI (TK-10 renal): > 100 µM
TGI (U251 CNS): > 100 µM
TGI (UACC-257 melanoma): 53.3 µM
TGI (UACC-62 melanoma): > 100 µM
TGI (UO-31 renal): > 100 µM

Clc1ccccc1C(Nc1cnccn1)Nc1cnccn1
TGI (786-0 renal): > 100 µM
TGI (A498 renal): > 100 µM
TGI (A549 NSCLC): > 100 µM
TGI (ACHN renal): > 100 µM
TGI (BT-549 breast): > 100 µM
TGI (CAKI-1 renal): > 100 µM
TGI (CCRF-CEM leukemia): > 100 µM
TGI (COLO 205 colon): > 100 µM
TGI (DU-145 prostate): > 100 µM
TGI (EKVX NSCLC): > 100 µM
TGI (HCC-2998 colon): > 100 µM
TGI (HCT-116 colon): > 100 µM
TGI (HCT-15 colon): > 100 µM
TGI (HL-60(TB) leukemia): > 100 µM
TGI (HOP-62 NSCLC): > 100 µM
TGI (HOP-92 NSCLC): > 100 µM
TGI (HS 578T breast): > 100 µM
TGI (HT29 colon): > 100 µM
TGI (IGROV1 ovarian): > 100 µM
TGI (K-562 leukemia): > 100 µM
TGI (KM12 colon): > 100 µM
TGI (LOX IMVI melanoma): > 100 µM
TGI (M14 melanoma): > 100 µM
TGI (MALME-3M melanoma): > 100 µM
TGI (MCF7 breast): > 100 µM
TGI (MDA-MB-231 breast): > 100 µM
TGI (MDA-MB-435): > 100 µM
TGI (MDA-N): > 100 µM
TGI (MOLT-4 leukemia): > 100 µM
TGI (NCI-H226 lung): > 100 µM
TGI (NCI-H23 lung): > 100 µM
TGI (NCI-H460 lung): > 100 µM
TGI (NCI-H522 lung): > 100 µM
TGI (NCI/ADR-RES ovarian): > 100 µM
TGI (OVCAR-3 ovarian): > 100 µM
TGI (OVCAR-4 ovarian): > 100 µM
TGI (OVCAR-5 ovarian): > 100 µM
TGI (OVCAR-8 ovarian): > 100 µM
TGI (PC-3 prostate): > 100 µM
TGI (RPMI-8226 leukemia): > 100 µM
TGI (RXF 393 renal): > 100 µM
TGI (SF-268 CNS): > 100 µM
TGI (SF-295 CNS): > 100 µM
TGI (SF-539 CNS): > 100 µM
TGI (SK-MEL-2 melanoma): > 100 µM
TGI (SK-MEL-28 melanoma): > 100 µM
TGI (SK-MEL-5 melanoma): > 100 µM
TGI (SK-OV-3 ovarian): > 100 µM
TGI (SN12C renal): > 100 µM
TGI (SNB-19 CNS): > 100 µM
TGI (SNB-75 CNS): > 100 µM
TGI (SW-620 colon): > 100 µM
TGI (T-47D breast): > 100 µM
TGI (TK-10 renal): > 100 µM
TGI (U251 CNS): > 100 µM
TGI (UACC-257 melanoma): > 100 µM
TGI (UACC-62 melanoma): > 100 µM
TGI (UO-31 renal): > 100 µM

CCOC(=O)c1cc(-c2ccc(OC)cc2)c([N+](=O)[O-])[nH]1
TGI (786-0 renal): > 10 µM
TGI (A498 renal): > 10 µM
TGI (A549 NSCLC): > 10 µM
TGI (ACHN renal): > 10 µM
TGI (BT-549 breast): > 10 µM
TGI (CAKI-1 renal): > 10 µM
TGI (CCRF-CEM leukemia): > 10 µM
TGI (COLO 205 colon): > 10 µM
TGI (DU-145 prostate): > 10 µM
TGI (EKVX NSCLC): > 10 µM
TGI (HCC-2998 colon): > 10 µM
TGI (HCT-116 colon): > 10 µM
TGI (HCT-15 colon): > 10 µM
TGI (HL-60(TB) leukemia): > 10 µM
TGI (HOP-62 NSCLC): > 10 µM
TGI (HOP-92 NSCLC): > 10 µM
TGI (HS 578T breast): > 10 µM
TGI (HT29 colon): > 10 µM
TGI (IGROV1 ovarian): > 10 µM
TGI (K-562 leukemia): > 10 µM
TGI (KM12 colon): > 10 µM
TGI (M14 melanoma): > 10 µM
TGI (MALME-3M melanoma): > 10 µM
TGI (MCF7 breast): > 10 µM
TGI (MDA-MB-231 breast): > 10 µM
TGI (MDA-MB-435): > 10 µM
TGI (MDA-N): > 3.16 µM
TGI (MOLT-4 leukemia): > 10 µM
TGI (NCI-H226 lung): > 10 µM
TGI (NCI-H23 lung): > 10 µM
TGI (NCI-H460 lung): > 10 µM
TGI (NCI-H522 lung): > 10 µM
TGI (OVCAR-3 ovarian): > 10 µM
TGI (OVCAR-4 ovarian): > 10 µM
TGI (OVCAR-5 ovarian): > 10 µM
TGI (OVCAR-8 ovarian): > 10 µM
TGI (PC-3 prostate): > 10 µM
TGI (RXF 393 renal): > 10 µM
TGI (SF-268 CNS): > 10 µM
TGI (SF-295 CNS): > 10 µM
TGI (SF-539 CNS): > 10 µM
TGI (SK-MEL-2 melanoma): > 10 µM
TGI (SK-MEL-28 melanoma): > 10 µM
TGI (SK-MEL-5 melanoma): > 10 µM
TGI (SK-OV-3 ovarian): > 10 µM
TGI (SN12C renal): > 10 µM
TGI (SNB-19 CNS): > 10 µM
TGI (SNB-75 CNS): > 10 µM
TGI (SR leukemia): > 10 µM
TGI (SW-620 colon): > 10 µM
TGI (T-47D breast): > 10 µM
TGI (TK-10 renal): > 10 µM
TGI (U251 CNS): > 10 µM
TGI (UACC-257 melanoma): > 10 µM
TGI (UACC-62 melanoma): > 10 µM
TGI (UO-31 renal): > 10 µM
